Test results taken from patent US9663512B2, “Bicyclic heterocycle compounds and their uses in therapy” (ASTEX THERAPEUTICS LIMITED, priority 2012, dated 2017).
Structures can show the parent of a compound that is named as a salt. Where two headings read alike, the source gives them in different places. Each block holds one compound with its values, some of them ahead of it.

Legend:
[1] = tested on: EVSA-T (human breast carcinoma); assay: Anti-proliferative activity, Alamar Blue assay, EVSA-T; type: cell-based; settings: EVSA-T cell line, read-out: EVSA-T prolif (EC50)
[2] = target: T1, BIR3 domain of human XIAP (Homo sapiens, UniProt P98170); assay: XIAP in vitro competitive displacement binding assay (fluorescence polarization); settings: for IC50: XIAP BIR3 fluorescence polarization displacement, average (e.g. geometric mean), read-out: Xiap IC50 or PI (IC50); for inhibition at […]: at 0.12 μM; for inhibition at […] / inhibition at 0.04 µM: read-out: Xiap IC50 or PI (percent inhibition)
T1 construct: BIR3 domain of human XIAP (residues 252-350) fused to a His-tag; His-tag (cleaved yes); made in house; host or cells: Escherichia coli

[3] = target: T2, BIR3 domain of human cIAP-1 (Homo sapiens, UniProt Q13490); assay: cIAP-1 in vitro competitive displacement binding assay (fluorescence polarization); settings: at 0.012 μM; read-out: cIAP1 IC50 or PI (percent inhibition)
T2 construct: human cIAP-1 (residues 267-363) fused to a GST-tag; GST-tag (cleaved yes); made in house; host or cells: Escherichia coli
T2 sequence (Q13490 267-363): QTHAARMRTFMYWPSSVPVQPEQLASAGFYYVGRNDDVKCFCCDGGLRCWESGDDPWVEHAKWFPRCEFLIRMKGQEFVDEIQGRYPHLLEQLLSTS

T1 sequence (P98170 252-350): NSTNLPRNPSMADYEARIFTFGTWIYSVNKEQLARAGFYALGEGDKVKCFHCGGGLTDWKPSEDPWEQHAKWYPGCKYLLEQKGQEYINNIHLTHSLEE

SMILES: Cc1cn(C[C@H]2CN[C@H](C)CN2CC(=O)N2CC(C)(C)c3ncc(Cc4ccc(F)cc4)cc32)cn1 (single isomer, unassigned) [Example 13, dihydrochloride]
EC50 ([1]; 72 hours): 9.9 nM

SMILES: Cc1cncn1C[C@H]1CN[C@H](C)CN1CC(=O)N1CC(C)(C)c2ncc(Cc3ccc(F)cc3)cc21 (single isomer, unassigned) [Example 14, dihydrochloride]
EC50 ([1]; 72 hours): 5.9 nM

SMILES: Cc1cnn(C[C@H]2CN[C@H](C)CN2CC(=O)N2CC(C)(C)c3ncc(Cc4ccc(F)cc4)cc32)c1C (single isomer, unassigned) [Example 20, dihydrochloride]
EC50 ([1]; 72 hours): < 1000 nM | EC50 ([1]; EVSA-T, 72 h): 2.1 nM

SMILES: Cc1cc(C)n(C[C@H]2CN[C@H](C)CN2CC(=O)N2CC(C)(C)c3ncc(Cc4ccc(F)cc4)cc32)n1 [Example 1, 2-[(2R,5R)-2-[(3,5-Dimethyl-1H-pyrazol-1-yl)methyl]-5-methylpiperazin-1-yl]-1-{6-[(4-fluorophenyl)methyl]-3,3-dimethyl-1H,2H,3H-pyrrolo[3,2-b]pyridin-1-yl}ethan-1-one, dihydrochloride]
IC50 [2]: 91 nM

SMILES: Cc1nccn1C[C@H]1CN[C@H](C)CN1CC(=O)N1CC(C)(C)c2ncc(Cc3ccc(F)cc3)cc21 [Example 2, 1-{6-[(4-Fluorophenyl)methyl]-3,3-dimethyl-1H,2H,3H-pyrrolo[3,2-b]pyridin-1-yl}-2-[(2R,5R)-5-methyl-2-[(2-methyl-1H-imidazol-1-yl)methyl]piperazin-1-yl]ethan-1-one, dihydrochloride]
inhibition at […] [3]: 100% | inhibition at […] [2]: 65%

SMILES: Cc1ncn(C[C@H]2CN[C@H](C)CN2CC(=O)N2CC(C)(C)c3ncc(Cc4ccc(F)cc4)cc32)c1C [Example 3, 2-[(2R,5R)-2-[(4,5-Dimethyl-1H-imidazol-1-yl)methyl]-5-methylpiperazin-1-yl]-1-{6-[(4-fluorophenyl)methyl]-3,3-dimethyl-1H,2H,3H-pyrrolo[3,2-b]pyridin-1-yl}ethan-1-one, dihydrochloride]
inhibition at […] [3]: 99% | inhibition at 0.04 µM [2]: 34%

SMILES: CCc1nccn1C[C@H]1CN[C@H](C)CN1CC(=O)N1CC(C)(C)c2ncc(Cc3ccc(F)cc3)cc21 [Example 4, 2-[(2R,5R)-2-[(2-Ethyl-1H-imidazol-1-yl)methyl]-5-methylpiperazin-1-yl]-1-{6-[(4-fluorophenyl)methyl]-3,3-dimethyl-1H,2H,3H-pyrrolo[3,2-b]pyridin-1-yl}ethan-1-one, dihydrochloride]
inhibition at […] [3]: 96% | inhibition at 0.04 µM [2]: 35%

SMILES: C[C@@H]1CN(CC(=O)N2CC(C)(C)c3ncc(Cc4ccc(F)cc4)cc32)[C@@H](Cn2ccnc2C(F)(F)F)CN1 [Example 5, 1-{6-[(4-Fluorophenyl)methyl]-3,3-dimethyl-1H,2H,3H-pyrrolo[3,2-b]pyridin-1-yl}-2-[(2R,5R)-5-methyl-2-{[2-(trifluoromethyl)-1H-imidazol-1-yl]methyl}piperazin-1-yl]ethan-1-one, dihydrochloride]
inhibition at […] [3]: 96% | IC50 [2]: 110 nM

SMILES: C[C@@H]1CN(CC(=O)N2CC(C)(C)c3ncc(Cc4ccc(F)cc4)cc32)[C@@H](Cn2ccnc2)CN1 [Example 6, 1-{6-[(4-Fluorophenyl)methyl]-3,3-dimethyl-1H,2H,3H-pyrrolo[3,2-b]pyridin-1-yl}-2-[(2R,5R)-2-(1H-imidazol-1-ylmethyl)-5-methylpiperazin-1-yl]ethan-1-one, dihydrochloride]
inhibition at […] [2]: 54%

SMILES: Cc1cn(C[C@H]2CN[C@H](C)CN2CC(=O)N2CC(C)(C)c3ncc(Cc4ccc(F)cc4)cc32)c(C)n1 [Example 7, 2-[(2R,5R)-2-[(2,4-Dimethyl-1H-imidazol-1-yl)methyl]-5-methylpiperazin-1-yl]-1-{6-[(4-fluorophenyl)methyl]-3,3-dimethyl-1H,2H,3H-pyrrolo[3,2-b]pyridin-1-yl}ethan-1-one, dihydrochloride]
EC50 ([1]; 72 hours): 2.9 nM

SMILES: C[C@@H]1CN(CC(=O)N2CC(C)(C)c3ncc(Cc4ccc(F)cc4)cc32)[C@@H](Cn2ccnc2Cl)CN1 [Example 8, 2-[(2R,5R)-2-[(2-Chloro-1H-imidazol-1-yl)methyl]-5-methylpiperazin-1-yl]-1-{6-[(4-fluorophenyl)methyl]-3,3-dimethyl-1H,2H,3H-pyrrolo[3,2-b]pyridin-1-yl}ethan-1-one, dihydrochloride]
inhibition at […] [3]: 100% | inhibition at 0.04 µM [2]: 36%

SMILES: Cc1ccc(=O)n(C[C@H]2CN[C@H](C)CN2CC(=O)N2CC(C)(C)c3ncc(Cc4ccc(F)cc4)cc32)c1 [Example 9, 1-{[(2R,5R)-1-(2-{6-[(4-Fluorophenyl)methyl]-3,3-dimethyl-1H,2H,3H-pyrrolo[3,2-b]pyridin-1-yl}-2-oxoethyl)-5-methylpiperazin-2-yl]methyl}-5-methyl-1,2-dihydropyridin-2-one, dihydrochloride]
inhibition at […] [3]: 92% | inhibition at 0.04 µM [2]: 35%

EC50 ([1]; EVSA-T, 72 h): 6.4 nM
SMILES: C[C@@H]1CN(CC(=O)N2CC(C)(C)c3ncc(Cc4ccc(F)cc4)cc32)[C@@H](Cn2ccnc2C#N)CN1 [Example 10, 1-{[(2R,5R)-1-(2-{6-[(4-Fluorophenyl)methyl]-3,3-dimethyl-1H,2H,3H-pyrrolo[3,2-b]pyridin-1-yl}-2-oxoethyl)-5-methylpiperazin-2-yl]methyl}-1H-imidazole-2-carbonitrile, L-lactate]

EC50 ([1]; EVSA-T, 72 h): 1.8 nM
SMILES: Cc1nc(Cl)cn1C[C@H]1CN[C@H](C)CN1CC(=O)N1CC(C)(C)c2ncc(Cc3ccc(F)cc3)cc21 [Example 11, 2-[(2R,5R)-2-[(4-Chloro-2-methyl-1H-imidazol-1-yl)methyl]-5-methylpiperazin-1-yl]-1-{6-[(4-fluorophenyl)methyl]-3,3-dimethyl-1H,2H,3H-pyrrolo[3,2-b]pyridin-1-yl}ethan-1-one, dihydrochloride]

SMILES: Cc1cnnn1C[C@H]1CN[C@H](C)CN1CC(=O)N1CC(C)(C)c2ncc(Cc3ccc(F)cc3)cc21 [Example 15, 1-{6-[(4-Fluorophenyl)methyl]-3,3-dimethyl-1H,2H,3H-pyrrolo[3,2-b]pyridin-1-yl}-2-[(2R,5R)-5-methyl-2-[(5-methyl-1H-1,2,3-triazol-1-yl)methyl]piperazin-1-yl]ethan-1-one, dihydrochloride]
IC50 [2]: 220 nM | EC50 ([1]; 72 hours): 9.4 nM

SMILES: Cc1cn(C[C@H]2CN[C@H](C)CN2CC(=O)N2CC(C)(C)c3ncc(Cc4ccc(F)cc4)cc32)nn1 [Example 16, 1-{6-[(4-Fluorophenyl)methyl]-3,3-dimethyl-1H,2H,3H-pyrrolo[3,2-b]pyridin-1-yl}-2-[(2R,5R)-5-methyl-2-[(4-methyl-1H-1,2,3-triazol-1-yl)methyl]piperazin-1-yl]ethan-1-one, dihydrochloride]
EC50 ([1]; 72 hours): 8.5 nM

SMILES: Cc1ncnn1C[C@H]1CN[C@H](C)CN1CC(=O)N1CC(C)(C)c2ncc(Cc3ccc(F)cc3)cc21 [Example 21, 1-{6-[(4-Fluorophenyl)methyl]-3,3-dimethyl-1H,2H,3H-pyrrolo[3,2-b]pyridin-1-yl}-2-[(2R,5R)-5-methyl-2-[(5-methyl-1H-1,2,4-triazol-1-yl)methyl]piperazin-1-yl]ethan-1-one]
inhibition at […] [3]: 95% | inhibition at […] [2]: 61%

SMILES: Cc1cc(C[C@H]2CN[C@H](C)CN2CC(=O)N2CC(C)(C)c3ncc(Cc4ccc(F)cc4F)cc32)n(C)n1 [Example 22, 1-{6-[(2,4-Difluorophenyl)methyl]-3,3-dimethyl-1H,2H,3H-pyrrolo[3,2-b]pyridin-1-yl}-2-[(2S,5R)-2-[(1,3-dimethyl-1H-pyrazol-5-yl)methyl]-5-methylpiperazin-1-yl]ethan-1-one, dihydrochloride]
inhibition at 0.04 µM [2]: 47%

SMILES: Cc1cn(C[C@H]2CN[C@H](C)CN2CC(=O)N2CC(C)(C)c3ncc(Cc4ccc(F)cc4)cc32)ccc1=O [Example 38, 1-{[(2R,5R)-1-(2-{6-[(4-Fluorophenyl)methyl]-3,3-dimethyl-1H,2H,3H-pyrrolo[3,2-b]pyridin-1-yl}-2-oxoethyl)-5-methylpiperazin-2-yl]methyl}-3-methyl-1,4-dihydropyridin-4-one, dihydrochloride]
inhibition at […] [3]: 94% | inhibition at 0.04 µM [2]: 48%
